Measurements from PubChem BioAssay AID256 (DTP/NCI, 2004).
“And” between values parts separate entries of the source, which are not always exact repeats. Identical values can stand only once. Inconclusive results and toxic doses are left out. Rule for the calls: active = survival T/C of 150% or more; inactive = T/C below 125% in these data.

System: CD2F1 mice, L1210 leukemia ip, survival T/C
Experiment: NCI In Vivo Anticancer Drug Screen. Data for tumor model L1210 Leukemia (intraperitoneal) in CD2F1 (CDF1) mice
Details: endpoint: mean survival time, higher = longer survival
Summary of the method: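 Implant tumor; dose compound or vehicle; measure endpoint in both groups; report treated divided by control.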

[1] = dose: 100.0 mg/kg/injection, schedule: Q01DX009 (ip), vehicle: saline with Tween-80
[2] = dose: 200.0 mg/kg/injection, schedule: Q01DX009 (ip), vehicle: saline with Tween-80
[3] = dose: 25.0 mg/kg/injection, schedule: Q01DX009 (ip), vehicle: saline with Tween-80
[4] = dose: 50.0 mg/kg/injection, schedule: Q01DX009 (ip), vehicle: saline with Tween-80
[5] = dose: 100.0 mg/kg/injection, schedule: Q04DX003 (ip), vehicle: saline with Tween-80
[6] = dose: 200.0 mg/kg/injection, schedule: Q01DX001 (ip), vehicle: saline with Tween-80
[7] = dose: 200.0 mg/kg/injection, schedule: Q04DX003 (ip), vehicle: saline with Tween-80
[8] = dose: 400.0 mg/kg/injection, schedule: Q01DX001 (ip), vehicle: saline with Tween-80
[9] = dose: 400.0 mg/kg/injection, schedule: Q04DX003 (ip), vehicle: saline with Tween-80
[10] = dose: 400.0 mg/kg/injection, schedule: Q01DX009 (ip), vehicle: saline with Tween-80
[11] = dose: 50.0 mg/kg/injection, schedule: Q01DX009 (ip), vehicle: Klucel (hydroxypropylcellulose) (HPC)
[12] = dose: 100.0 mg/kg/injection, schedule: Q01DX009 (ip), vehicle: Klucel (hydroxypropylcellulose) (HPC)
[13] = dose: 200.0 mg/kg/injection, schedule: Q01DX009 (ip), vehicle: Klucel (hydroxypropylcellulose) (HPC)

Measured: T/C

CN(CCC#N)Cc1cc(C(C)(C)C)cc(-c2ccccc2)c1O
inactive: [1] 90 % of control | [2] 90 % of control

Cc1ccc2c(c1)N=C(Nc1ccccc1)N=S2(C)=O (centres undefined)
inactive: dose: 6.25 mg/kg/injection, schedule: Q01DX009 (ip), vehicle: saline with Tween-80 96 % of control and 104 % of control | dose: 12.5 mg/kg/injection, schedule: Q01DX009 (ip), vehicle: saline with Tween-80 100 % of control and 107 % of control | [3] 104 % of control | [4] 90 % of control and 106 % of control | [1] 101 % of control | [2] 102 % of control

NC(CS)=NCC12CC3CC(CC(C3)C1)C2
inactive: dose: 12.5 mg/kg/injection, schedule: Q01DX001 (ip), vehicle: Klucel (hydroxypropylcellulose) (HPC) 92 % of control | dose: 25.0 mg/kg/injection, schedule: Q01DX001 (ip), vehicle: Klucel (hydroxypropylcellulose) (HPC) 94 % of control | dose: 50.0 mg/kg/injection, schedule: Q01DX001 (ip), vehicle: Klucel (hydroxypropylcellulose) (HPC) 101 % of control

O=C(O)c1cnc(Cl)c(Br)c1
inactive: dose: 100.0 mg/kg/injection, schedule: Q01DX001 (ip), vehicle: saline with Tween-80 103 % of control | [5] 97 % of control | [6] 93 % of control | [7] 93 % of control | [8] 98 % of control | [9] 93 % of control

CC(=O)OCc1ccc(Cl)cc1Cl
inactive: [1] 98 % of control | [2] 104 % of control | [10] 95 % of control

COc1ccc(N=C2C=CC(=O)O2)cc1
inactive: [3] 95 % of control | [4] 100 % of control | [1] 97 % of control | [5] 101 % of control

CCOC(=O)C(CC)C(=O)OCC
inactive: [1] 94 % of control | [2] 93 % of control | [10] 94 % of control

O=P1(O)c2ccccc2Nc2ccccc21
inactive: [11] 104 % of control | [12] 93 % of control | [13] 108 % of control

O=C(c1ccccc1)C(Br)C(Br)c1ccccc1 (centres undefined)
inactive: [1] 93 % of control | [5] 94 % of control | [6] 91 % of control | [2] 106 % of control | [7] 90 % of control | [8] 94 % of control | [10] 95 % of control | [9] 92 % of control

FC(F)(F)c1ccc2c(c1)N(CCCN1CCN(CCC3OCCCO3)CC1)c1ccccc1S2
inactive: dose: 0.78 mg/kg/injection, schedule: Q01DX009 (ip), vehicle: saline 96 % of control | dose: 1.56 mg/kg/injection, schedule: Q01DX009 (ip), vehicle: saline 96 % of control | dose: 3.12 mg/kg/injection, schedule: Q01DX009 (ip), vehicle: saline 94 % of control | dose: 6.25 mg/kg/injection, schedule: Q01DX009 (ip), vehicle: saline 96 % of control | dose: 12.5 mg/kg/injection, schedule: Q01DX009 (ip), vehicle: saline 103 % of control

O=c1ccc2ccccc2o1
inactive: [11] 100 % of control | [12] 96 % of control | [13] 96 % of control

CC12CCC(O)CC1CCC1C2CCC2(C)C(C3=CC(=O)OC3)CCC12 (centres undefined)
inactive: dose: 50.0 mg/kg/injection, schedule: Q01DX001 (ip), vehicle: saline 96 % of control | dose: 100.0 mg/kg/injection, schedule: Q01DX001 (ip), vehicle: saline 98 % of control | dose: 200.0 mg/kg/injection, schedule: Q01DX001 (ip), vehicle: saline 98 % of control

O=C(N/N=C/c1cccc([N+](=O)[O-])c1)c1ccc(Cl)cc1Cl
inactive: [1] 100 % of control | [2] 97 % of control | [10] 100 % of control

CCCCNC(C)(C)C(SS)c1ccc(C(F)(F)F)cc1 (centres undefined)
inactive: dose: 100.0 mg/kg/injection, schedule: Q04DX003 (ip), vehicle: other 94 % of control | dose: 400.0 mg/kg/injection, schedule: Q04DX003 (ip), vehicle: other 86 % of control
